Source: article PMC10879502, “Linking ATP and allosteric sites to achieve superadditive binding with bivalent EGFR kinase inhibitors” (Communications Chemistry, 2024)
Several values for one entry are separate records, joined by “and”; a condition that tells them apart may be missing. Equal values may be shown once. Read-outs that look alike come from different tables or passages of the source.

Legend:
[1] = biological target: T1, EGFR L858R (LR) kinase domain (Homo sapiens, UniProt P00533, L858R); assay: HTRF KinEASE-TK kinase activity assay; assay type: biochemical
T1 construct: The EGFR kinase domain (residues 696–1022) was cloned into pTriEx; 6xHis (N, cleaved yes); GST (N, cleaved yes); made in house; host or cells: SF9 insect cells, baculovirus

[2] = biological target: CDK4-cyclinD1 (Homo sapiens, UniProt P11802); assay: KINOMEscan; assay type: binding; conditions: 1 μM
[3] = biological target: T2, FRK (Homo sapiens, UniProt P42685); assay: KINOMEscan; assay type: binding; conditions: 1 μM
T2 construct: purchased Eurofins DiscoverX Corporation

[4] = biological target: T3, LRRK2 (Homo sapiens, UniProt Q5S007); assay: KINOMEscan; assay type: binding; conditions: 1 μM
T3 construct: purchased Eurofins DiscoverX Corporation

[5] = biological target: ACVR1B (Homo sapiens, UniProt P36896); assay: KINOMEscan; assay type: binding; conditions: 1 μM
[6] = biological target: FLT3(D835V) (Homo sapiens, UniProt P36888, D835V); assay: KINOMEscan; assay type: binding; conditions: 1 μM
[7] = biological target: PRKG2 (Homo sapiens, UniProt Q13237); assay: KINOMEscan; assay type: binding; conditions: 1 μM
[8] = biological target: CIT (Homo sapiens, UniProt O14578); assay: KINOMEscan; assay type: binding; conditions: 1 μM
[9] = biological target: T4, MYLK (Homo sapiens, UniProt Q15746); assay: KINOMEscan; assay type: binding; conditions: 1 μM
T4 construct: purchased Eurofins DiscoverX Corporation

[10] = biological target: T5, MAP3K1 (Homo sapiens, UniProt Q13233); assay: KINOMEscan; assay type: binding; conditions: 1 μM
T5 construct: purchased Eurofins DiscoverX Corporation

[11] = biological target: PRKCD (Homo sapiens, UniProt Q05655); assay: KINOMEscan; assay type: binding; conditions: 1 μM
[12] = biological target: WNK3 (Homo sapiens, UniProt Q9BYP7); assay: KINOMEscan; assay type: binding; conditions: 1 μM
[13] = biological target: RIPK1 (Homo sapiens, UniProt Q13546); assay: KINOMEscan; assay type: binding; conditions: 1 μM
[14] = biological target: PAK6 (Homo sapiens, UniProt Q9NQU5); assay: KINOMEscan; assay type: binding; conditions: 1 μM
[15] = biological target: T6, AAK1 (Homo sapiens, UniProt Q2M2I8); assay: KINOMEscan; assay type: binding; conditions: 1 μM
T6 construct: purchased Eurofins DiscoverX Corporation

[16] = biological target: RIOK2 (Homo sapiens, UniProt Q9BVS4); assay: KINOMEscan; assay type: binding; conditions: 1 μM
[17] = biological target: T7, DYRK2 (Homo sapiens, UniProt Q92630); assay: KINOMEscan; assay type: binding; conditions: 1 μM
T7 construct: purchased Eurofins DiscoverX Corporation

[18] = biological target: EGFR(G719C) (Homo sapiens, UniProt P00533, G719C); assay: KINOMEscan; assay type: binding; conditions: 1 μM

Sequence of RIOK2 (Q9BVS4 whole entry): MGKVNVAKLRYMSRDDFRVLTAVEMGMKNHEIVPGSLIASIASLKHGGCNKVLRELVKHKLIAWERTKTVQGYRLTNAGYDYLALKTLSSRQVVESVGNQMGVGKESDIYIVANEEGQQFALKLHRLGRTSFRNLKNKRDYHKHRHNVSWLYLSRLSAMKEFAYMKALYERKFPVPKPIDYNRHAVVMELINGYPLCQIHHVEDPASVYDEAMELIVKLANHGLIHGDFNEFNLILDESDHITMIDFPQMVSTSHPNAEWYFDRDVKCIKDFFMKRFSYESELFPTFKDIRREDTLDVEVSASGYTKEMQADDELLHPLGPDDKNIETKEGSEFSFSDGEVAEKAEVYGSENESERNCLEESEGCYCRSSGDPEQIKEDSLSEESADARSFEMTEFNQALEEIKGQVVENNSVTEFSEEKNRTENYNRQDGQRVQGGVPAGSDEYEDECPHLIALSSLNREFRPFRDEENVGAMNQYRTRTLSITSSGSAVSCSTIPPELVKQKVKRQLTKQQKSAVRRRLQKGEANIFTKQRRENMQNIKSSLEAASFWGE
Sequence of CDK4-cyclinD1 (P11802 whole entry): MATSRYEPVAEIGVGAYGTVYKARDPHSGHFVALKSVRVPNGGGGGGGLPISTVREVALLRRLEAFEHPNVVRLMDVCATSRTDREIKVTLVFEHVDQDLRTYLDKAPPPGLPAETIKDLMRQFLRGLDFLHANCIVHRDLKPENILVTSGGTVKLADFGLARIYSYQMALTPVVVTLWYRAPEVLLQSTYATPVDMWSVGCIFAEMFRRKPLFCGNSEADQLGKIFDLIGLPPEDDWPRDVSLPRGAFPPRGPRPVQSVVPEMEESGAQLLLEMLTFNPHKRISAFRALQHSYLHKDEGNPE
Sequence of CDK4-cyclinD1 (P24385 whole entry partner): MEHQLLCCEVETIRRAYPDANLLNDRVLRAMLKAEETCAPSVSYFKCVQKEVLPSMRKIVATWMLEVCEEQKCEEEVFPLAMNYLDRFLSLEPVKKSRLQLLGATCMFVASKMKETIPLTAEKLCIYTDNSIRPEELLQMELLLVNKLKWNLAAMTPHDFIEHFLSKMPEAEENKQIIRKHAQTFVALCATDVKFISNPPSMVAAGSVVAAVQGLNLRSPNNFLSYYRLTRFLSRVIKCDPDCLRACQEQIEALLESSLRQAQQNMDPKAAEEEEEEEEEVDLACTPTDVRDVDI
Sequence of WNK3 (Q9BYP7 whole entry): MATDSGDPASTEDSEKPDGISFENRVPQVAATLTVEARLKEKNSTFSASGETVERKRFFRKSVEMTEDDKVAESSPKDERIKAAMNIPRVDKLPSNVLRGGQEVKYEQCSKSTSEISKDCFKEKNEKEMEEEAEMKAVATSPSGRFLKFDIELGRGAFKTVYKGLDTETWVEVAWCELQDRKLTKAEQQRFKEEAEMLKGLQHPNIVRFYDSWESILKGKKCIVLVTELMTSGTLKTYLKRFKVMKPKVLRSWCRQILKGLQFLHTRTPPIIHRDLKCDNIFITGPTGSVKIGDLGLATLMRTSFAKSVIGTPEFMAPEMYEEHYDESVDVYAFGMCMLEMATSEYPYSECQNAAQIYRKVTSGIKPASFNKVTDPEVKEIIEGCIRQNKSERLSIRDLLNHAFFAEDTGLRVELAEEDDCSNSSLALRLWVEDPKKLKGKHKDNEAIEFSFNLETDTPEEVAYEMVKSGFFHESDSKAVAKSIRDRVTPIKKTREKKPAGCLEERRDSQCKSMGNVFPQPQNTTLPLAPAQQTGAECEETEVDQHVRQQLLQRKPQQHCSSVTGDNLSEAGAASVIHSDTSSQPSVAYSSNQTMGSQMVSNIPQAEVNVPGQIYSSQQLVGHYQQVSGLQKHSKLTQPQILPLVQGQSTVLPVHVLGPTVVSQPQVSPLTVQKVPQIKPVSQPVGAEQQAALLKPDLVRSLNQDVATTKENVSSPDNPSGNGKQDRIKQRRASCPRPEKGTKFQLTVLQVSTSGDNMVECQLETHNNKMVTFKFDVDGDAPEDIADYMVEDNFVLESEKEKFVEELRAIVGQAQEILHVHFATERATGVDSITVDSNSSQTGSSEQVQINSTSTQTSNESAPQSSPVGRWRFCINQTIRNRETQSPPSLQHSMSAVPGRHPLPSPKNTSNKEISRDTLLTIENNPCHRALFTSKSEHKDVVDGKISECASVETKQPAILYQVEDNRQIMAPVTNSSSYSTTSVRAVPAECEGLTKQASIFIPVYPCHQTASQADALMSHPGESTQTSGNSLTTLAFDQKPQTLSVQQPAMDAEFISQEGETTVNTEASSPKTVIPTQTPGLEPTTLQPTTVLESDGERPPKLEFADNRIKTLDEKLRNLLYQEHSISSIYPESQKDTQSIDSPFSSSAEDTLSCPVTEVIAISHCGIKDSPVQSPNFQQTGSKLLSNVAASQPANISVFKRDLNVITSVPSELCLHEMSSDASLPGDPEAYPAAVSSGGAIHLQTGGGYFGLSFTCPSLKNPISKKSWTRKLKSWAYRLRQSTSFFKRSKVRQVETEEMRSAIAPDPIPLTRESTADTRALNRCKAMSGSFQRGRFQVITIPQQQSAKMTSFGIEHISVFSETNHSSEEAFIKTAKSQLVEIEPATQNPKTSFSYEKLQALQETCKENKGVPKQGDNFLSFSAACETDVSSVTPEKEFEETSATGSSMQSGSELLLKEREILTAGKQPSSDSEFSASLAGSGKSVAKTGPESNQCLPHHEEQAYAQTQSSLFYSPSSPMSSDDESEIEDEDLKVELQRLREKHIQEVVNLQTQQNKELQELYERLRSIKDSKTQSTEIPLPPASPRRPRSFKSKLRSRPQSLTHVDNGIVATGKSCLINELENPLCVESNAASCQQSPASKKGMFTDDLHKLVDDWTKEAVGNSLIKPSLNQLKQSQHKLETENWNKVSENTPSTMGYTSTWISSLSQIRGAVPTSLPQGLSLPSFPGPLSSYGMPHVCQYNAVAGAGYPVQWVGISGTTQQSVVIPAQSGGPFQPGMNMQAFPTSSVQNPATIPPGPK
T4 sequence (Q15746 whole entry): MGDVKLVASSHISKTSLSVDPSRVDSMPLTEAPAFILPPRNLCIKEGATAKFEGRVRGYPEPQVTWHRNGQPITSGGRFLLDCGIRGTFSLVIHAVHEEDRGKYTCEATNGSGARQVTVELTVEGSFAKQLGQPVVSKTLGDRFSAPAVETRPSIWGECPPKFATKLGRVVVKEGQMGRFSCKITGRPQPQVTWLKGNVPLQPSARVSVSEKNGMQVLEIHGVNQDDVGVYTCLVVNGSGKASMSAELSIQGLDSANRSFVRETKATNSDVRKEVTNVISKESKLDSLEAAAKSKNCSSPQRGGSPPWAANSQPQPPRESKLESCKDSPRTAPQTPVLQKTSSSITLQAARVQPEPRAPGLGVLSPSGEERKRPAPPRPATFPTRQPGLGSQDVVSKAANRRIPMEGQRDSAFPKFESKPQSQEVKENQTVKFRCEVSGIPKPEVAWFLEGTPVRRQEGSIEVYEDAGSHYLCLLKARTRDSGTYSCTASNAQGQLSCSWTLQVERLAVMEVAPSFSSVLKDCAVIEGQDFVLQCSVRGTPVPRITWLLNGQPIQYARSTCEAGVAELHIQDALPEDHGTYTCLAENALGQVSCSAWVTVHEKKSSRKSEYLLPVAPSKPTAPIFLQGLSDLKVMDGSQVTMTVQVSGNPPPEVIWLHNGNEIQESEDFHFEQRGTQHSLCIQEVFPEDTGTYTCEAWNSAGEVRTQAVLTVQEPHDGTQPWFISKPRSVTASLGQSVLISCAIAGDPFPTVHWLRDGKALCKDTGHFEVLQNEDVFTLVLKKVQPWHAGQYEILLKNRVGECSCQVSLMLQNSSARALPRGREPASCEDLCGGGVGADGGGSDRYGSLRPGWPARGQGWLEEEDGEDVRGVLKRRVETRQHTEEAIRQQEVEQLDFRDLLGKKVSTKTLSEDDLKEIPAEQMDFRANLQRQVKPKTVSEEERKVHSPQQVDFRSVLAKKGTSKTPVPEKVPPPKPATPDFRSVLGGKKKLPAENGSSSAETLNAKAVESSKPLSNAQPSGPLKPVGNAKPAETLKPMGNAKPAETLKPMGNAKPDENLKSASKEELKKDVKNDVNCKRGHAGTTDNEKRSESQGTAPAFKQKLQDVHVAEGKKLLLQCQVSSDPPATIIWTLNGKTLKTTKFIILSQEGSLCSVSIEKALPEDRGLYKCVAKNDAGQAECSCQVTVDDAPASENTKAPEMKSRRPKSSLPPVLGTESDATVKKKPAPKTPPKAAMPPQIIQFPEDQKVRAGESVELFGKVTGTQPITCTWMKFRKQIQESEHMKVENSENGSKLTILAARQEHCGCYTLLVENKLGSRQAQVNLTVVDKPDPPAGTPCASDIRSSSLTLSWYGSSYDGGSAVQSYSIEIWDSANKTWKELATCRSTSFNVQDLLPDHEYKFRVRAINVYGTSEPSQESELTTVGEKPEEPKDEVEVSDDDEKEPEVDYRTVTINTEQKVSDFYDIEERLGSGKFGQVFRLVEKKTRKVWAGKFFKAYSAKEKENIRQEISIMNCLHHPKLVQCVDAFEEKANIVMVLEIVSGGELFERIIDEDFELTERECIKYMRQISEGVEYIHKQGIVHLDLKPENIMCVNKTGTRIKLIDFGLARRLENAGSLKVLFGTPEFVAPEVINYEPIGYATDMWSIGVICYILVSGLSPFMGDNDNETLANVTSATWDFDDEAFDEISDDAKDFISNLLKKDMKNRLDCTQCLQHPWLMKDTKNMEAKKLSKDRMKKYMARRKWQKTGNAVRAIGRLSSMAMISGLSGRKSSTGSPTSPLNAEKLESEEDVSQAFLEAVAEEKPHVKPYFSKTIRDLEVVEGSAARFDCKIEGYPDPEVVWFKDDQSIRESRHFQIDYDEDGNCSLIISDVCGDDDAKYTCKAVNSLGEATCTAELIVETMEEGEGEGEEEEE

For `CSc1nc(-c2cccc(NC(=O)c3cccc4c3NC(=O)c3ccccc3N4)c2)c(-c2ccnc(NC(C)=O)c2)[nH]1` [Compound 2], the activity ([1]; LR, [Inhibitor] 1.3e-5 nM, read-out: percent inhibition) was 93.5% and 92.2% and 100%, the activity ([1]; LR, [Inhibitor] 3.18e-5 nM, read-out: percent inhibition) was 90.3% (2×) and 95.9% and the activity ([1]; LR, [Inhibitor] 7.78e-5 nM, read-out: percent inhibition) was 71% and 67.2% and 70.8%. The activity at 190.4 fM ([1]; LR, [Inhibitor] 0.000190441 nM, read-out: percent inhibition) was 39.1%, the activity at 466 fM ([1]; LR, [Inhibitor] 0.000465979 nM, read-out: percent inhibition) was 22.7% and the activity at 1.14 pM ([1]; LR, [Inhibitor] 0.00114018 nM, read-out: percent inhibition) was 13.5%. For the same molecule, the activity at 2.79 pM ([1]; LR, [Inhibitor] 0.00278983 nM, read-out: percent inhibition) was 8.55%, the activity at 6.826 pM ([1]; LR, [Inhibitor] 0.00682626 nM, read-out: percent inhibition) was 4.28% and the activity at 16.7 pM ([1]; LR, [Inhibitor] 0.0167028 nM, read-out: percent inhibition) was 1.88%. It also gave an IC50 ([1]; enzyme 0.1 nM, ATP 100 µM, read-out: Biochemical EGFR IC50, LR) of 1.5 ± 0.1 nM.
`C=CC(=O)Nc1ccc(OC)c(Nc2cc(-c3[nH]c(CC)nc3-c3cccc(NC(=O)c4cccc5c4NC(=O)c4ccccc4N5)c3)ccn2)c1` [Compound 4] was tested, and the POC [2] was 94% of control, the POC [3] was 20% of control and the POC [4] was 93% of control. For the same molecule, the POC [5] was 85% of control, the POC [6] was 100% of control and the POC [7] was 62% of control. The POC [8] was 6.3% of control, the POC [9] was 84% of control and the POC [10] was 100% of control. The POC [11] was 55% of control, the POC [12] was 78% of control and the POC [13] was 100% of control. For the same molecule, the POC [14] was 93% of control, the POC [15] was 100% of control and the POC [16] was 83% of control. For the same molecule, the POC [17] was 75% of control and the POC [18] was 6.5% of control.
